Source: ChEMBL document CHEMBL5728268, “Substituted tricyclic heterocyclic compounds and use thereof” (2021)
pIC50: −log10 of the molar value.

Biological target: Tyrosine-protein kinase JAK2 (Homo sapiens, UniProt O60674)
Assay: JAK2 Assay: JAK2 (5-20 mU diluted in 50 mM Tris pH 7.5, 0.1 mM EGTA, 0.05% 0-mercaptoethanol, 1 mg/ml BSA) is assayed against PDKtide ([…]-[…]) in a final volume of 25.5 μl containing 50 mM Tris pH 7.5, 0.1 mM EGTA, 0.05% 0-mercaptoethanol, 100 μM substrate peptide, 10 mM magnesium acetate and 0.005 mM [33P-γ-ATP] (50-1000 cpm/pmole) and incubated for 30 min at room temperature Assays are stopped by addition of 5 μl of 0.5 M (3%) orthophosphoric acid and then harvested onto P81 Unifilter plates with a wash buffer of 50 mM orthophosphoric acid.

Chain of Tyrosine-protein kinase JAK2 (O60674 whole entry): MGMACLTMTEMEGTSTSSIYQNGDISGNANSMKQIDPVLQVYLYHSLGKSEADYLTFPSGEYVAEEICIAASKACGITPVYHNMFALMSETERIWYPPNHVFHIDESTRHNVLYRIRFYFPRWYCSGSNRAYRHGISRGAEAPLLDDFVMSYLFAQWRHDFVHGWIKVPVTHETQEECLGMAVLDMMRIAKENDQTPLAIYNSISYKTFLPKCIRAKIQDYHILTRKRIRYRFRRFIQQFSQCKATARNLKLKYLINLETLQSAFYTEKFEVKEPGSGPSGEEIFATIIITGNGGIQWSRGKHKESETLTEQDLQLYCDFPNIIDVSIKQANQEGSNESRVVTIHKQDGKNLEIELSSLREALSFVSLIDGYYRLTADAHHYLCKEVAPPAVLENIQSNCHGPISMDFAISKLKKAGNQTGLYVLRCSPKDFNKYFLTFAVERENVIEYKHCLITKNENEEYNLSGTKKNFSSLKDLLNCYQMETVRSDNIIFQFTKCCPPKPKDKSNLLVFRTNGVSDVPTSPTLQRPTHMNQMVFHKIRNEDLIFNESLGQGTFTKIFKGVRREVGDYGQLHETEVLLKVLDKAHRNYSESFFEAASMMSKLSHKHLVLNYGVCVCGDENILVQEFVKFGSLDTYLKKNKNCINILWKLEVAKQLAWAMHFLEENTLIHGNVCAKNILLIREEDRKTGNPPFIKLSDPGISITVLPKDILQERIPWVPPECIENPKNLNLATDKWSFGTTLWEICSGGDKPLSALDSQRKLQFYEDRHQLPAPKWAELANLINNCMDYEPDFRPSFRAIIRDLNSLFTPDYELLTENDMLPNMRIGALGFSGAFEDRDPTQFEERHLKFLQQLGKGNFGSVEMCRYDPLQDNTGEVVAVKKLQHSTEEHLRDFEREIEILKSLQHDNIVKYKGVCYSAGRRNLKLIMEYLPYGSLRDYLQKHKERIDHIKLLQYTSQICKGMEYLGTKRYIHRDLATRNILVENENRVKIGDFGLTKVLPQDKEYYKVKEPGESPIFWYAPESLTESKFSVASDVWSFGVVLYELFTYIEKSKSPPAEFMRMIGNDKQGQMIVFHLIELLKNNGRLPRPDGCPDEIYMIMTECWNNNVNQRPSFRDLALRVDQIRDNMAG

SMILES	pIC50
Cc1cc2c(cn1)CN(C1CCOCC1)c1nccc3[nH]nc-2c13	6.05
Fc1ccc2c(c1)-c1n[nH]c3ccnc(c13)N(C1CCOCC1)C2	6.05
Cn1ncc2c1CN(C1CCOCC1)c1nccc3[nH]nc-2c13	6.04
CCn1ncc2c1CN(C1CCOCC1)c1nccc3[nH]nc-2c13	5.82
CC(C)N1CCC(N2Cc3c(cnn3C)-c3n[nH]c4ccnc2c34)CC1	5.35

Further lines, results first:

pIC50	SMILES
5.27	CCn1ncc2c1CN(C1CCN(C(C)C)CC1)c1nccc3[nH]nc-2c13
5.18	c1cc2[nH]nc3c2c(n1)N(C1CCCC1)CCC3
5.68	CC(C)n1ncc2c1CN(C1CCOCC1)c1nccc3[nH]nc-2c13
5.77	CCc1cc2c(cn1)CN(C1CCOCC1)c1nccc3[nH]nc-2c13
